Data reported in patent publication US20220009894A1, “1,2,3,4-TETRAHYDROQUINOXALINE DERIVATIVE, PREPARATION METHOD THEREFOR AND APPLICATION THEREOF” (Abbisko Therapeutics Co., Ltd., priority 2019, published 2022).

Experiments:
RORγt = target: T1, RORγt (Homo sapiens, UniProt P51449); assay: RORγt cellular reporter gene detection assay; assay type: cell-based; conditions: 24 hrs; for EC50: HEK 293 cells co-transfected with pFN26A-RORγt-LBD and pG14.35, in presence of antagonist Ursolic acid, top concentration 50 μM; for Cellular Reporter Assay Amax: upper activation limit, HEK 293 cells, in presence of antagonist Ursolic acid;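 as to Cellular Reporter Assay Amax: Ursolic Acid added as 5 µL of 20 µM medium per well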
T1 construct: The plasmid of pFN26A-RORγt-LBD and pG14.35 (Promega, Cat. No. E1370) were co-transfected into HEK 293 cells; expressed in transfected cells; host or cells: HEK 293 cells (Cat. No. GNHu18)
T1 sequence (P51449 269-508 limits assumed): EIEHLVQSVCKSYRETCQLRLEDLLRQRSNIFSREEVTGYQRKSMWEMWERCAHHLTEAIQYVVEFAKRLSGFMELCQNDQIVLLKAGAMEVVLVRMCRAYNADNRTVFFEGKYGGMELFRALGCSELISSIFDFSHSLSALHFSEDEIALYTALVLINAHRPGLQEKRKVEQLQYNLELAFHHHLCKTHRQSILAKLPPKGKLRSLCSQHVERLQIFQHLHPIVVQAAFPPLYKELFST
How it was run: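 HEK293 cells co-transfected with RORγt-LBD and luciferase reporter plasmids, treated with Ursolic acid antagonist plus compound in 4-fold dilutions from 50 μM for 24 h at 37° C. Firefly and Renilla luminescence read; EC50 and Amax from four-parameter fit.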

RORγt-LBD = target: T2, RORγt-LBD (Homo sapiens, UniProt P51449); assay: Time-resolved fluorescence resonance energy-transfer assay (TR-FRET), co-activator peptide recruitment; assay type: biochemical; design: TR-FRET Biochemical Amax: unit not given here; conditions: for EC50: His-RORγt-LBD 30 nM, SRC peptide 500 nM, agonistic activity, averages of one or more measurements, read-out: TR-FRET Biochemical EC50/; for TR-FRET Biochemical Amax: upper activation limit, His-RORγt-LBD, SRC peptide
T2 sequence (P51449 269-508 limits assumed): T1 sequence (P51449 269-508 limits assumed)
How it was run: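 Eu-anti-His-labelled His-RORγt-LBD (30 nM final) recruits biotin-SRC co-activator peptide (500 nM final), detected via APC-streptavidin (5 nM) and Eu-anti-His (0.25 nM). Buffer was Tris/KCl/EDTA at pH 7.0 with 0.01% Triton X-100 and 1 mM DTT. Compounds were tested at 7 points in 5-fold dilutions. Plates were incubated overnight at 4 °C then 1 h at RT, and agonism was read as the 665/615 nm ratio.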

EC50 (RORγt) [nM]	Cellular Reporter Assay Amax (RORγt)	EC50 (RORγt-LBD) [nM]	TR-FRET Biochemical Amax (RORγt-LBD)	Compound
123	1.4	0.84	1.28	CC1(C)C=C(c2ccc3c(c2)N(S(=O)(=O)c2cccc(C(F)(F)F)c2)C[C@@H]2CN(C[C@H](O)CO)CCN32)CC(C)(C)O1 [Example 42, (S)-3-((S)-8-(2,2,6,6-tetrameth-yl-3,6-dihydro-2H-pyran-4-yl)-6-((3-(trifluoromethyl)phenyl)sulfonyl)-1,2,4,4a,5,6-hexa-hydro-3H-pyrazino[1,2-a]qui-noxalin-3-yl)propane-1,2-diol]
924	4.0	5.29	0.72	CCOC(=O)CN1CCN2c3ccc(/C=C/c4c(Cl)cccc4C(F)(F)F)cc3N(S(=O)(=O)c3cccc(C(F)(F)F)c3)C[C@@H]2C1 [Example 46, ethyl (S,E)-2-(8-(2-chloro-6-(trifluoromethyl)styryl)-6-((3-(trifluoromethyl)phenyl)sulfonyl)-1,2,4,4a,5,6-hexahydro-3H-pyrazino [1,2-a]quinoxalin-3-yl)acetate]
750	2.1	3.51	0.77	CC(C)OC(=O)CN1CCN2c3ccc(/C=C/c4c(Cl)cccc4C(F)(F)F)cc3N(S(=O)(=O)c3cccc(C(F)(F)F)c3)C[C@@H]2C1 [Example 47, isopropyl (S,E)-2-(8-(2-chloro-6-(trifluoromethyl)styryl)-6-((3-(trifluoromethyl)phenyl)sulfonyl)-1,2,4,4a,5,6-hexahydro-3H-pyrazino[1,2-a]quinoxalin-3-yl) acetate]
283	1.9	10.7	0.67	C/C(=C\c1ccc2c(c1)N(S(=O)(=O)c1cccc(C(F)(F)F)c1)C[C@@H]1CN(CC(=O)OC(C)C)CCN21)c1c(F)cccc1Cl [Example 48, isopropyl (S,E)-2-(8-(2-(2-chloro-6-fluorophenyl)prop-1-en-1-yl)-6-((3-(trifluoromethyl)phe-nyl)sulfonyl)-1,2,4,4a,5,6-hexa-hydro-3H-pyrazino[1,2-a]quinox-alin-3-yl)acetate]
238	5.2	5.47	0.61	C/C(=C\c1ccc2c(c1)N(S(=O)(=O)c1cccc(C(F)(F)F)c1)C[C@@H]1CN(CC(=O)OCOC(=O)OC(C)C)CCN21)c1c(F)cccc1Cl [Example 49, ((isopropoxycarbonyl)oxy)methyl (S,E)-2-(8-(2-(2-chloro-6-fluorophenyl)prop-1-en-1-yl)-6-((3-(trifluoromethyl)phenyl)sulfonyl)-1,2,4,4a,5,6-hexahydro-3H-pyrazino[1,2-a]quinoxalin-3-yl)acetate]
3940	1.5	48.7	0.77	CC(C)(C)OC(=O)C(C)(C)N1CCN2c3ccc(-c4cc(F)cc(OC(F)F)c4)cc3N(S(=O)(=O)c3cccc(C(F)(F)F)c3)C[C@@H]2C1 [Example 51, tert-butyl (S)-2-(8-(3-(difluoromethoxy)-5-fluorophenyl)-6-((3-(trifluoromethyl)phenyl)sulfonyl)-1,2,4,4a,5,6-hexahydro-3H-pyrazino[1,2-a]quinoxalin-3-yl)-2-methylpropanoate]
≥ 50000	–	256	0.55	C/C(=C\c1ccc2c(c1)N(S(=O)(=O)c1cccc(C(F)(F)F)c1)C[C@@H]1CN(C(C)(C)C(=O)OC(C)(C)C)CCN21)c1c(F)cccc1Cl [Example 53, tert-butyl (S,E)-2-(8-(2-(2-chloro-6-fluorophenyl)prop-1-en-1-yl)-6-((3-(trifluoromethyl)phe-nyl)sulfonyl)-1,2,4,4a,5,6-hexahydro-3H-pyrazino[1,2-a]qui-noxalin-3-yl)-2-methylpropanoate]

Further lines, the compound ahead of its results:

Compound	EC50 (RORγt) [nM]	Cellular Reporter Assay Amax (RORγt)	EC50 (RORγt-LBD) [nM]	TR-FRET Biochemical Amax (RORγt-LBD)
O=S(=O)(c1cccc(C(F)(F)F)c1)N1C[C@@H]2CN(C[C@H](O)CO)CCN2c2ccc(-c3cc(F)cc(OC(F)F)c3)cc21 [Example 40, (S)-3-((S)-8-(3-(difluoromethoxy)-5-fluorophenyl)-6-((3-(tri-fluoromethyl)phenyl)sulfonyl)-1,2,4,4a,5,6-hexahydro-3H-pyrazino[1,2-a]quinoxalin-3-yl) propane-1,2-diol]	733	2.5	13	0.76
CCOC(=O)CN1CCN2c3ccc(/C=C(\C)c4c(F)cccc4Cl)cc3N(S(=O)(=O)c3cccc(C(F)(F)F)c3)C[C@@H]2C1 [Example 43, ethyl (S,E)-2-(8-(2-(2-chloro-6-fluorophenyl)prop-1-en-1-yl)-6-((3-(trifluoromethyl)phenyl)sulfonyl)-1,2,4,4a,5,6-hexahydro-3H-pyrazino[1,2-a]quinoxalin-3-yl)acetate]	162	3.0	17.2	0.87
COC(=O)CN1CCN2c3ccc(/C=C(\C)c4c(F)cccc4Cl)cc3N(S(=O)(=O)c3cccc(C(F)(F)F)c3)C[C@@H]2C1 [Example 44, methyl (S,E)-2-(8-(2-(2-chloro-6-fluorophenyl)prop-1-en-1-yl)-6-((3-(trifluoromethyl)phenyl)sulfonyl)-1,2,4,4a,5,6-hexahydro-3H-pyrazino[1,2-a]quinoxalin-3-yl)acetate]	256	4.2	23.5	1.04
COC(=O)CN1CCN2c3ccc(/C=C/c4c(Cl)cccc4C(F)(F)F)cc3N(S(=O)(=O)c3cccc(C(F)(F)F)c3)C[C@@H]2C1 [Example 45, methyl (S,E)-2-(8-(2-chloro-6-(trifluoromethyl)styryl)-6-((3-(trifluoromethyl)phenyl)sulfonyl)-1,2,4,4a,5,6-hexahydro-3H-pyrazino[1,2-a]quinoxalin-3-yl) acetate]	375	–	10.5	–
CC(C)OC(=O)OCOC(=O)CN1CCN2c3ccc(/C=C/c4c(Cl)cccc4C(F)(F)F)cc3N(S(=O)(=O)c3cccc(C(F)(F)F)c3)C[C@@H]2C1 [Example 50, ((isopropoxycarbonyl)oxy)methyl (S,E)-2-(8-(2-chloro-6-(trifluoromethyl)styryl)-6-((3-(trifluoromethyl)phenyl)sulfonyl)-1,2,4,4a,5,6-hexahydro-3H-pyrazino[1,2-a]quinoxalin-3-yl)acetate]	676	6.3	8.13	0.64
CC(C)(C)OC(=O)C(C)(C)N1CCN2c3ccc(/C=C/c4c(Cl)cccc4C(F)(F)F)cc3N(S(=O)(=O)c3cccc(C(F)(F)F)c3)C[C@@H]2C1 [Example 52, tert-butyl (S,E)-2-(8-(2-chloro-6-(trifluoromethyl)styryl)-6-((3-(trifluoromethyl)phenyl)sul-fonyl)-1,2,4,4a,5,6-hexahydro-3H-pyrazino[1,2-a]quinoxalin-3-yl)-2-methylpropanoate]	≥ 50000	–	184	0.50
CC(C)(C(=O)O)N1CCN2c3ccc(-c4cc(F)cc(OC(F)F)c4)cc3N(S(=O)(=O)c3cccc(C(F)(F)F)c3)C[C@@H]2C1 [Example 54, (S)-2-(8-(3-(difluoromethoxy)-5-fluorophenyl)-6-((3-(trifluoromethyl)phenyl)sulfonyl)-1,2,4,4a,5,6-hexahydro-3H-pyrazino[1,2-a]quinoxalin-3-yl)-2-methylpropanoic acid]	297	3.9	20.1	0.72
CC(C)(C(=O)O)N1CCN2c3ccc(/C=C/c4c(Cl)cccc4C(F)(F)F)cc3N(S(=O)(=O)c3cccc(C(F)(F)F)c3)C[C@@H]2C1 [Example 55, (S,E)-2-(8-(2-chloro-6-(trifluoro-methyl)styryl)-6-((3-(trifluoro-methyl)phenyl)sulfonyl)-1,2,4,4a,5,6-hexahydro-3H-pyrazino [1,2-a]quinoxalin-3-yl)-2-methylpropanoic acid]	508	2.7	46.6	0.78
C/C(=C\c1ccc2c(c1)N(S(=O)(=O)c1cccc(C(F)(F)F)c1)C[C@@H]1CN(C(C)(C)C(=O)O)CCN21)c1c(F)cccc1Cl [Example 56, (S,E)-2-(8-(2-(2-chloro-6-fluoro-phenyl)prop-1-en-1-yl)-6-((3-(trifluoromethyl)phenyl)sulfo-nyl)-1,2,4,4a,5,6-hexahydro-3H-pyrazino[1,2-a]quinoxalin-3-yl)-2-methylpropanoic acid]	622	3.2	44.5	0.71
